Some test systems named below: A498; A549; CCRF-CEM; DU-145; EKVX; HCT-116; HCT-15; HOP-92; HT-29; MDA-MB-231; MDA-MB-435; NCI-H522; NCI/ADR-RES; OVCAR-3; RPMI-8226; SK-MEL-28; SNB-19; SNB-75; SR; SW-620.
Assay in all cases: NCI-60 cell line screen, 48 h

The values below come from ChEMBL document CHEMBL1201862, “PubChem BioAssay data set” (2004).

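Five concentrations, 48 hours, 96-well plates. GI50 marks 50% less growth.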 Activity calls are given as the source filed them. No stated cut-off is given here; in the data, active = GI50 up to about 1.1 µM and inactive = higher. Where only a bound is given, the exact number is not on record here.

Turning to `O=S1(=O)CCN(c2ccccc2CC(c2c[nH]c3ccccc23)c2c[nH]c3ccccc23)CC1`, the GI50 in the assay on A498 is 10 µM (inactive); in the assay with A549, 8.41 µM (inactive); in the assay with CCRF-CEM, 1.99 µM (inactive); with DU-145, 7.43 µM (inactive); in the assay with EKVX, 8.49 µM (inactive); with HCT-116, 4.47 µM (inactive). Also, the GI50 in the assay on HCT-15 was 4.94 µM; in the assay with HOP-92 it was 5.37 µM (inactive); with HT-29, 4.59 µM (inactive); in the assay on MDA-MB-231, 6.92 µM (inactive); in the assay with MDA-MB-435, 5.62 µM (inactive); in the assay on NCI-H522, 4.49 µM (inactive). The GI50 in the assay with NCI/ADR-RES is 6.62 µM (inactive); with OVCAR-3 it was 5.53 µM (inactive); with RPMI-8226 it was 1.75 µM (inactive); in the assay on SK-MEL-28 it was 8.73 µM (inactive); in the assay with SNB-19, 12.3 µM (inactive); in the assay on SNB-75, 5.02 µM (inactive). The GI50 in the assay on SR was 3.08 µM (inactive); with SW-620, 3.92 µM (inactive).
`O=c1[nH]cc(/C=N\Nc2ccccc2)c(=O)[nH]1`: the GI50 in the assay on A498, in the assay with A549, in the assay on CCRF-CEM, with DU-145, in the assay on EKVX and in the assay with HCT-116 was > 100 µM (inactive) throughout. The GI50 in the assay on HCT-15 is 36.3 µM; in the assay on HOP-92, > 100 µM (inactive); in the assay on HT-29, 49.2 µM (inactive); in the assay with MDA-MB-231, > 100 µM (inactive); in the assay on MDA-MB-435, > 100 µM (inactive); in the assay on NCI-H522, > 100 µM (inactive). The GI50 in the assay on NCI/ADR-RES was > 100 µM (inactive); in the assay on OVCAR-3, 21.8 µM (inactive); in the assay with RPMI-8226 it was > 100 µM (inactive); in the assay with SK-MEL-28, > 100 µM (inactive); in the assay on SNB-19, > 100 µM (inactive); in the assay with SNB-75, > 100 µM (inactive). For the same compound, the GI50 in the assay with SR and with SW-620 was > 100 µM (inactive) in each case.
As to `COc1ccc2[nH]c3c(C)c4ccnc(NCCCN(C)CCCNc5ccc6ncn7c8ccccc8c(=O)c5c67)c4c(C)c3c2c1`, the GI50 in the assay on A498 is 1.11 µM (active); in the assay with A549, 0.106 µM (active); in the assay with CCRF-CEM, 0.0394 µM (active); with DU-145, 0.796 µM (active); with EKVX it was 0.94 µM (active); in the assay on HCT-116 it was 0.0767 µM (active). The GI50 in the assay with HCT-15 was 0.21 µM; with HOP-92, 1.68 µM (inactive); with HT-29 it was 0.0141 µM (active); in the assay on MDA-MB-231, 0.322 µM (active); in the assay on MDA-MB-435, 0.713 µM (active); in the assay with NCI-H522 it was 0.0524 µM (active). Also, the GI50 is 0.664 µM (active) in the assay on NCI/ADR-RES; 1.87 µM (inactive) in the assay on OVCAR-3; 0.13 µM (active) in the assay with RPMI-8226; 0.671 µM (active) with SK-MEL-28; 0.752 µM (active) with SNB-19; 1.71 µM (inactive) in the assay on SNB-75. Further, the GI50 with SR was 0.0197 µM (active); in the assay with SW-620, 0.0418 µM (active).
With `CC1(C)Oc2ccccc2OC1O` (stereo not given), the GI50 in the assay with A498, in the assay on A549, in the assay with CCRF-CEM, in the assay with DU-145, in the assay on EKVX and with HCT-116 was > 100 µM (inactive) throughout. For the same compound, the GI50 with HCT-15 was above 100 µM; in the assay on HOP-92, > 100 µM (inactive); in the assay with HT-29, > 100 µM (inactive); in the assay on MDA-MB-231, > 100 µM (inactive); in the assay on MDA-MB-435, > 100 µM (inactive); with NCI-H522, > 100 µM (inactive). In addition, the GI50 in the assay on NCI/ADR-RES, in the assay with OVCAR-3, in the assay on RPMI-8226, in the assay on SK-MEL-28, with SNB-19 and in the assay on SNB-75 was > 100 µM (inactive) in each case. For the same compound, the GI50 with SR and with SW-620 was > 100 µM (inactive) each time.
`O=C(NO)c1cccc(OCc2ccc(Br)cc2)c1`: the GI50 was 8.93 µM (inactive) in the assay on A498; 5.28 µM (inactive) with A549; 1.91 µM (inactive) in the assay on CCRF-CEM; 3.13 µM (inactive) with DU-145; 5.9 µM (inactive) in the assay with EKVX; 4.35 µM (inactive) with HCT-116. Further, the GI50 with HCT-15 was 0.991 µM; with HOP-92, 7.8 µM (inactive); in the assay with HT-29 it was 6.98 µM (inactive); in the assay on MDA-MB-231 it was 12.3 µM (inactive); with MDA-MB-435, 5.73 µM (inactive); in the assay on NCI-H522, 1.41 µM (inactive). Also, the GI50 in the assay on NCI/ADR-RES is 2.93 µM (inactive); in the assay with OVCAR-3 it was 3.85 µM (inactive); in the assay on RPMI-8226, 2.74 µM (inactive); with SK-MEL-28 it was 14.2 µM (inactive); with SNB-19, 9.35 µM (inactive); with SNB-75, 4.29 µM (inactive). The GI50 in the assay with SR is 2.29 µM (inactive); in the assay on SW-620, 6.55 µM (inactive).
For `CC1=C(O)C(=O)C=C2C1=CC=C1[C@@]2(C)CC[C@@]2(C)C3C[C@@H](C)C(=O)[C@@H](O)[C@]3(C)CC[C@]12C` (stereo not given in full), the GI50 is 6.32 µM (inactive) with A498; 13.9 µM (inactive) in the assay on A549; 0.33 µM (active) in the assay on CCRF-CEM; 1.79 µM (inactive) in the assay on DU-145; 2.08 µM (inactive) with EKVX; 1.72 µM (inactive) with HCT-116. Moreover, the GI50 in the assay on HCT-15 is 1.91 µM; with HOP-92, 2.03 µM (inactive); in the assay with HT-29, 1.97 µM (inactive); in the assay with MDA-MB-231 it was 2 µM (inactive); with MDA-MB-435, 2.24 µM (inactive); in the assay on NCI-H522, 1.05 µM (active). Further, the GI50 in the assay on NCI/ADR-RES is 2.97 µM (inactive); in the assay on OVCAR-3, 1.88 µM (inactive); in the assay on RPMI-8226, 1.25 µM (inactive); in the assay with SK-MEL-28, 1.95 µM (inactive); with SNB-19 it was 4.15 µM (inactive); in the assay with SNB-75, 8.38 µM (inactive). For the same compound, the GI50 was 0.3 µM (active) with SR and 1.24 µM (inactive) in the assay on SW-620.
Consider `COc1ccc2c(c1)CC1Cc3cc(OC)c(OC)cc3CN1CC2` (stereo not given), for which the GI50 in the assay on A498 was 28.6 µM (inactive); in the assay on A549, 42.4 µM (inactive); in the assay with CCRF-CEM it was 19.5 µM (inactive); with DU-145 it was 36.6 µM (inactive); in the assay with EKVX, 32.8 µM (inactive); in the assay with HCT-116, 23.5 µM (inactive). For the same compound, the GI50 in the assay with HCT-15 was 44.7 µM; in the assay with HOP-92, 11.6 µM (inactive); with HT-29, 10.1 µM (inactive); in the assay with MDA-MB-231, 42.6 µM (inactive); with MDA-MB-435, 37.9 µM (inactive); with NCI-H522, 34.6 µM (inactive). In addition, the GI50 was 31.8 µM (inactive) in the assay with NCI/ADR-RES; 72.4 µM (inactive) in the assay on OVCAR-3; 25.8 µM (inactive) in the assay with RPMI-8226; 42.8 µM (inactive) in the assay with SK-MEL-28; 35.3 µM (inactive) in the assay with SNB-19; 29.7 µM (inactive) in the assay on SNB-75. Besides, the GI50 in the assay with SR is 17.7 µM (inactive); in the assay with SW-620, 47.1 µM (inactive).
Turning to `CCn1c(-c2ccc(C)cc2)cs/c1=N\C(P(=O)(O)O)P(=O)(O)O`, the GI50 in the assay with A498, in the assay with A549, in the assay with CCRF-CEM, in the assay on DU-145, with EKVX and in the assay on HCT-116 was > 100 µM (inactive) each time. In addition, the GI50 in the assay with HCT-15 was above 100 µM; with HOP-92, > 100 µM (inactive); with HT-29 it was > 100 µM (inactive); with MDA-MB-231, > 100 µM (inactive); with MDA-MB-435, > 100 µM (inactive); in the assay on NCI-H522, > 100 µM (inactive). Moreover, the GI50 with NCI/ADR-RES, with OVCAR-3, with RPMI-8226, with SK-MEL-28, in the assay on SNB-19 and in the assay on SNB-75 was > 100 µM (inactive) in each case. In addition, the GI50 in the assay on SR and in the assay on SW-620 was > 100 µM (inactive) throughout.
Turning to `CCc1nc(N)nc(N)c1-c1ccc(Cl)c(Cl)c1` [ETOPRINE], the GI50 was > 100 µM (inactive) with A498; 0.789 µM (active) in the assay with A549; > 100 µM (inactive) in the assay with CCRF-CEM; 11 µM (inactive) in the assay on DU-145; 20.9 µM (inactive) with EKVX; 0.574 µM (active) in the assay with HCT-116. Besides, the GI50 in the assay on HCT-15 was 3.75 µM; with HOP-92, 13.3 µM (inactive); in the assay with HT-29, 0.879 µM (active); in the assay on MDA-MB-231 it was > 100 µM (inactive); in the assay on MDA-MB-435 it was 0.818 µM (active); with NCI-H522 it was 5.81 µM (inactive). Further, the GI50 is 1.47 µM (inactive) in the assay with NCI/ADR-RES; 24.9 µM (inactive) in the assay with OVCAR-3; 9.71 µM (inactive) in the assay with RPMI-8226; > 100 µM (inactive) in the assay with SK-MEL-28; 25.2 µM (inactive) with SNB-19; 35.1 µM (inactive) in the assay with SNB-75. Also, the GI50 was 0.755 µM (active) in the assay with SR and 5.32 µM (inactive) in the assay with SW-620.
As to `CC1=C2C(=C[C@@](C)(CO)[C@@H]2O)C(=O)[C@](C)(O)C12CC2` [ILLUDIN], the GI50 in the assay on A498 is 0.0104 µM (active); with A549, 0.00458 µM (active); in the assay with CCRF-CEM it was 0.0169 µM (active); with DU-145, 0.0181 µM (active); in the assay on EKVX it was 0.027 µM (active); with HCT-116, 0.00386 µM (active). The GI50 in the assay on HCT-15 was 0.00675 µM; with HOP-92 it was 0.0232 µM (active); with HT-29, 0.00341 µM (active); in the assay with MDA-MB-231, 0.0213 µM (active); in the assay with MDA-MB-435, 0.0156 µM (active); with NCI-H522, 0.00352 µM (active). In addition, the GI50 with NCI/ADR-RES was 0.0074 µM (active); with OVCAR-3, 0.0187 µM (active); with RPMI-8226 it was 0.855 µM (active); in the assay with SK-MEL-28 it was 0.0167 µM (active); with SNB-19 it was 0.0282 µM (active); in the assay on SNB-75, 0.0138 µM (active). Besides, the GI50 with SR is 0.00182 µM (active); in the assay with SW-620, 0.00305 µM (active).
